Values of other authors as cited in PMC6009888, “Design, synthesis, and pharmacological evaluation of 2-amino-5-nitrothiazole derived semicarbazones as dual inhibitors of monoamine oxidase and cholinesterase: effect of the size of aryl binding site” (Journal of Enzyme Inhibition and Medicinal Chemistry, 2017).

Key:
MAO-A [1] = test system: MAO-A; set-up: method as in PMID 12553895, PMID 23325700, PMID 27135466; settings: Figure 1, lead semicarbazone inhibitors; ref [47–50]; cited from earlier work
MAO-B [2] = test system: MAO-B; set-up: method as in PMID 12553895, PMID 23325700, PMID 27135466; settings: Figure 1, lead semicarbazone inhibitors; ref [47–50]; cited from earlier work
AChE = test system: AChE; set-up: method as in PMID 12553895, PMID 23325700, PMID 27135466; settings: Figure 1, lead semicarbazone inhibitors; ref [47–50]; cited from earlier work
MAO-A [3] = biological target: T1, MAO-A (Rattus norvegicus, UniProt P21396); settings: reference inhibitors; ref [50]; read-out: MAO-A In vitro IC50 (µM) ± SEM; cited from earlier work
T1 construct: employing crude rat brain mitochondrial suspension; from tissue; host or cells: brain mitochondria of adult Wistar rats
T1 sequence (P21396 1-526): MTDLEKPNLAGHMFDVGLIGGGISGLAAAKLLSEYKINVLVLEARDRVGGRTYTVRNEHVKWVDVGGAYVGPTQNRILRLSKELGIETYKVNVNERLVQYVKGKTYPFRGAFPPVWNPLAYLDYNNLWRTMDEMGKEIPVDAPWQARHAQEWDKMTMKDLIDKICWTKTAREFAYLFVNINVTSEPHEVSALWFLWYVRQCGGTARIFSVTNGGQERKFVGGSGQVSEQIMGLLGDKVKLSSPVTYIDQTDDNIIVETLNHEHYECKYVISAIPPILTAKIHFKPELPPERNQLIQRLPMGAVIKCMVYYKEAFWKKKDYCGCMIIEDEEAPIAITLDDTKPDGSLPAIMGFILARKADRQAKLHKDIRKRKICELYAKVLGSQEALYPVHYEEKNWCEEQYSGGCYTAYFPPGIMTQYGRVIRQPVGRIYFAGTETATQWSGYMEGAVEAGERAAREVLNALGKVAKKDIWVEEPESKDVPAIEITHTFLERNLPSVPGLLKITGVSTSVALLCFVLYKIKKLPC

MAO-B [4] = biological target: T2, MAO-B (Rattus norvegicus, UniProt P19643); set-up: method as in PMID 27135466; settings: reference inhibitors; ref [50]; read-out: MAO-B In vitro IC50 (µM) ± SEM; cited from earlier work
T2 construct: employing crude rat brain mitochondrial suspension; from tissue; host or cells: brain mitochondria of adult Wistar rats
T2 sequence (P19643 1-520): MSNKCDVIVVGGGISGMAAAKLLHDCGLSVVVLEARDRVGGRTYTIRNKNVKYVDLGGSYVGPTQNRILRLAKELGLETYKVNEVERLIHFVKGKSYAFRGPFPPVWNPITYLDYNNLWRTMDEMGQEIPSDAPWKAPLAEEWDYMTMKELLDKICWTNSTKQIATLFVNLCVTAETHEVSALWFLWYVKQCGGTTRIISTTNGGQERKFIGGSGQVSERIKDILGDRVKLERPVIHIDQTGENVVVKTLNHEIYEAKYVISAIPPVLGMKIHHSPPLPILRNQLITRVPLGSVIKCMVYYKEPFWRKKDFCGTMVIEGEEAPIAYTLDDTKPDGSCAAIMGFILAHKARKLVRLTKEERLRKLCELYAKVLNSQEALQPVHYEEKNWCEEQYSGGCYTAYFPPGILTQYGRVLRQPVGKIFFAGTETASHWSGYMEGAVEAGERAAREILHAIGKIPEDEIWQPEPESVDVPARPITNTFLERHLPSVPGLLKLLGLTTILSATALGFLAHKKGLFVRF

In the case of `O=C(N/N=C/c1c(Cl)cccc1Cl)Nc1ccc2c(c1)OCO2` [(ii)], the IC50 (MAO-A [1]) is listed as 4.52 ± 0.032 µM, the IC50 (MAO-B [2]) is listed as 0.059 ± 0.002 µM and the IC50 (AChE) is listed as 0.0087 ± 0.0002 µM.

For `O=C(N/N=C1/C(=O)Nc2ccccc21)Nc1nc2ccc([N+](=O)[O-])cc2s1` [(v)], the IC50 (MAO-A [1]) is listed as 5.98 ± 0.534 µM and the IC50 (MAO-B [2]) is listed as 2.15 ± 0.095 µM.

For `O=C(NN=C(c1ccccc1)c1ccccc1)Nc1ccncc1` [(iii)], the IC50 (AChE) is given as 0.052 ± 0.01 µM.

In the case of `CNC(=O)N(CCO)/N=C/c1ccc(OCc2ccccc2)cc1` [(iv)], the IC50 (MAO-A [1]) is given as 90 µM and the IC50 (MAO-B [2]) is given as 2.2 µM.

In the case of `COc1ccc2c(c1)[nH]c1c(C)nccc12` [HRM, Harmine], the IC50 (MAO-A [3]) is given as 3 µM and the IC50 (MAO-B [4]) is given as 7000 µM.

In the case of `O=C(N/N=C(\c1ccccc1)c1ccc(Cl)cc1)Nc1nc2ccc([N+](=O)[O-])cc2s1` [(i)], the IC50 (MAO-A [1]) is listed as 0.184 ± 0.001 µM and the IC50 (MAO-B [2]) is listed as 0.004 ± 0.001 µM.
